Test results from patent publication US5707615A, “Method of treating HIV infections with anti-viral formulations” (Merrell Pharmaceuticals Inc., priority 1997, dated 1998).

How the values were obtained:
[1] = system: viral protein which is responsible for cell recognition; details: cited from earlier work
[2] = system: HIV-I (GB8); experiment: Pretreatment of JM cells and block of HIV-I (GB8) infection (Example IV); details: pretreated overnight at 20 μg/mL
[3] = system: GB8 virus in JM cells; experiment: Virus infection of JM cells with GB8 in the presence of test compounds: syncytia and P24 (Example II); details: for SYNCYTIA % / P24 %: % of control; for SYNCYTIA %: 2880 min; for P24 %: 5760 min
Experimental: Virus infection of JM cells was carried out in the presence of different concentrations of test compounds. JM cells (1×10^5) and 50-100 syncytial forming units of virus (GB8) were added to duplicate wells of a tissue culture plate containing 1 mL volumes of growth medium with or without drug. The plate was incubated for 2 days at 37° C. and then scored for the presence of syncytia. At the same time the cells were washed and the growth medium replaced. After a further two days incubation, the cell free supernatant fluids were harvested and assayed for levels of P24 viral core antigen using the Coulter™ HIV Antigen assay.

[4] = system: HIV strain RF; experiment: Ability to prevent virus-induced cell death using MT4 cells and strain RF (Example III); type: cell-based; details: MT4 cells, 7 days, MTT
Experimental: (§1) Various oligomers were dissolved in RPMI and were then assayed for anti-HIV activity by making doubling dilutions of the solutions across a 96 well microtitre plate. To each well were then added 5×10^4 cells and 100 TCID50 of virus and the plates incubated at 37° C. for 7 days. MTT was added to each well and the plates incubated for a further 2 hours. The blue formazan crystals were dissolved using acidic isopropanol, and the absorbance measured at 540 nm.

[5] = system: MT4 cells; experiment: Toxicity to MT4 cells (TD50, Table IV, MTT); type: cell-based; details: human, mt4 cells, 168 h
Experimental: as §1

[6] = in vivo; cited from earlier work
[7] = system: HIV-I, GB8; experiment: Ability to prevent syncytia formation and expression of P24 viral core antigen using JM cells and GB8 virus strain (Example I); type: cell-based; details: for P24 % CONTROL: 4320 min
Experimental: The virus was first incubated with an oligomer for 15 minutes and then the cells were added. After 2 hours adsorption, the virus innoculum was removed and the cells were washed three times to remove traces of input virus. Antiviral activity was determined after 3 days incubation by plotting the mean number of syncytia found in quadruple cultures against log10 concentration of anionic polymer or of other test compounds. The potency of an oligomer was also measured by assaying viral core antigen (P24 test-Abbott) in the supernatant fluid. Heparin, dextran sulfate, rs CD4, ATZ and/or ddC data, when included in any of the following Tables, are provided as positive controls.

## Heparin [reference compound]
[1]
  inhibition of host cell infection: limited inhibition of host cell infection
[2]
  P24: 29090 pg/mL
[2]; 2 days
  MEAN SYNCYTIA: 136
[2]; % of control, 2880 min
  P24 %: 103%
  SYNCYTIA %: 114%
[3]; Table II, 0.01 μg/mL
  SYNCYTIA (2 DAYS) MEAN: 38
  SYNCYTIA %: 90%
[3]; Table II, 0.03 μg/mL
  SYNCYTIA (2 DAYS) MEAN: 29
  SYNCYTIA %: 69%
[3]; Table II, 0.1 μg/mL
  SYNCYTIA (2 DAYS) MEAN: 24
  SYNCYTIA %: 57%
[3]; Table II, 0.3 μg/mL
  P24: 4.1 × 10^4 units/mL
  SYNCYTIA (2 DAYS) MEAN: 22
  SYNCYTIA %: 52%
  P24 %: 11%
[3]; Table II, 1 μg/mL
  SYNCYTIA (2 DAYS) MEAN: 2
  SYNCYTIA %: 5%
  P24 %: 8%
[3]; Table II, 3 μg/mL
  P24: 1.7 × 10^4 units/mL
  SYNCYTIA (2 DAYS) MEAN: 0
  SYNCYTIA %: 0%
  P24 %: 5%
[3]; Table II, 10 μg/mL
  SYNCYTIA (2 DAYS) MEAN: 0
  SYNCYTIA %: 0%
  P24 %: 3%
[3]; Table III, 1 μg/mL
  P24: 211000 pg/mL
  SYNCYTIA MEAN: 13
  SYNCYTIA %: 19%
  P24 %: 63%
[3]; Table III, 10 μg/mL
  P24: 70700 pg/mL
  SYNCYTIA MEAN: 0
  P24 %: 21%
[3]; Table III, 100 μg/mL
  P24: 989 pg/mL
  SYNCYTIA MEAN: 0
  P24 %: 0.3%
[4]
  ED50: 4.6 mg/L
[5]
  TD50: > 100 µg/mL
[6]
  side effects: hemorrhage and increased clot formation time as well as thrombocytopenia
[7]; 0.6 μg/mL
  P24: 44570 pg/mL
  P24 % CONTROL: 0.1%
[7]; 2.5 μg/mL
  P24: 25775 pg/mL
  P24 % CONTROL: < 0.1%
[7]; 5.0 μg/mL
  P24: 2500 pg/mL
  P24 % CONTROL: < 0.1%
[7]; 5.0 μg/mL, after 3 days
  SYNCYTIA: 0
